These results are taken from publication PMC3375010, “The TRPV5/6 calcium channels contain multiple calmodulin binding sites with differential binding properties” (Journal of Structural and Functional Genomics, 2012).

For data set [1], the target named is T1, CaM (calmodulin) (Xenopus laevis, UniProt P0DP33).
T1 construct: made in house; host or cells: E. coli AR58 (pTNcoI2 plasmid)
The data set is described as follows: 15N-T1rho relaxation of CaM (oligomeric state). The arrangement: species or system Xenopus laevis (identical to mammalian). The settings on record: CaM:V5p2 1:1.5 complex. The procedure: (§1) The binding of target peptides to CaM was monitored by 2D ^15N-^1H-HSQC spectra. The combination of 1D ^15N-filtered and 1D ^15N-^1H-HSQC experiments was used to assess the ratio of bound and non-bound peptides. ^15N-T1rho experiments were used to estimate the transverse relaxation rates of the CaM resonances during the titration. For sequential assignment of CaM 3D HNCACB and CBCA(CO)NH experiments were performed.
At CaM:V5p2 1:0.75 molar ratio, a significant number of the CaM peaks are doubled and for some peaks substantial line broadening is observed. […] Using the envelope of the well-dispersed, upfield-shifted amide resonances, we obtained T1rho values of ~100 ms for free Ca^2+/CaM which decreased to ~80 ms for CaM in the 1:1.5 complex.

Data set [2] deals with T1, CaM (calmodulin). The data set is described as follows: Tryptophan fluorescence of the peptide upon titration by CaM. The settings on record: room temperature; for emission maximum: V5p2, W593; for emission maximum without CaM (start of shift): V6p1 W695: CaM buffer pH 7.0, V5p2 W593: H2O with 2-mercaptoethanol pH 7.0 (Table 1), before CaM addition; for emission maximum without CaM (start of shift) / shift of emission maximum upon CaM addition: excitation 282 nm; for shift of emission maximum upon CaM addition: emission 295–405 nm, peptide:CaM 1:0–1:2. In kind it is binding, Xenopus laevis (identical to mammalian). The protocol:
Fluorescence measurements were performed using a Varian Cary Eclipse fluorescence spectrophotometer (Agilent Technologies, USA), with emission and excitation slit width set to 5 nm. Tryptophan excitation wavelength was set to 282 nm and emission spectra were recorded in the range 295–405 nm. Each spectrum was recorded three times and averaged. Fluorescence intensity contribution from CaM and background intensity from buffer and cuvettes were subtracted for each spectrum. The recorded emission intensities were corrected for dilution effects. All measurements were carried out at room temperature. CaM and peptides stocks were prepared in 50 mM KCl, 10 mM CaCl2 20 mM Tris pH 7.0 buffer. […] For each titration point, the samples were kept at room temperature for 30 min prior to measurements to ensure that the equilibrium was reached.

The target of data set [3] is T1, CaM (calmodulin). The data set can be described thus: 15N-1H-HSQC NMR titration of 15N-labelled CaM with peptide (with 1D 15N-filtered NMR). The conditions noted are these: 35°C; for CaM NMR line broadening: CaM:peptide 1:1.5 molar ratio, H2O with 10 mM 2-mercaptoethanol; for NMR exchange regime of CaM-peptide complex: 15N-1H-HSQC, V5p4, V5p5: CaM buffer pH 7.0, V5p2, V5p2n: H2O with 10 mM 2-mercaptoethanol; for CaM domains involved in binding (overall): V6p1: first and second event, pH 7.0, V5p3: 1:1, pH 5.0; for CaM binding affinity (words, from NMR): 1:0–1:3. It counts as binding, Xenopus laevis (identical to mammalian). The procedure:
(§2) For the titration by synthetic peptides, ^15N-labeled CaM samples with concentration 0.3–0.7 mM were used. CaM and peptides were dissolved in either KCl 50 mM, CaCl2 10 mM, Tris 20 mM pH 7.0 (V5p1s, V6p1, V5p4, V5p5), or 10 mM CaCl2, 10 mM ammonium acetate buffer pH 5.0 (V5p3 and V6p3), or MilliQ water with 10 mM 2-mercaptoethanol (V5p2 and V5p2n).
as §1
All spectra were recorded at 308 K on Varian Inova 800 MHz or Bruker Avance III 600 MHz spectrometers, each equipped with a cryogenic probe.
All NMR spectra were processed using the NMRpipe suite and analyzed by the program CcpNmr Analysis.

Data set [4] can be described thus: Peptide solubility / aggregation. It counts as physicochemical. The settings on record: for solubility: V5p2: at concentrations desired for NMR, V5p3, V6p3: 10 mM CaCl2, 10 mM ammonium acetate pH 5.0; for aggregation / precipitation: aqueous buffer versus water, 2-mercaptoethanol 10 mM tested. The procedure:
as §2
^15N-^1H-HSQC spectra of the complexes of CaM with V5p2 at molar ratios 1:0 (black), 1:0.75 (red) and 1:1.5 (blue) are presented in Fig. 5a.
The binding patterns observed for CaM in the two complexes were also very similar (supplementary Fig. 4sC). Low pH (5.0) might influence CaM-peptide interactions but we have not studied the effect of pH in details. As both peptides contain neither tryptophan, nor tyrosine residues, fluorescence measurements were not possible using the native peptides.

For data set [5], the target named is T1, CaM (calmodulin). The data set is described as follows: Isothermal titration calorimetry of CaM with peptide. It counts as binding, Xenopus laevis (identical to mammalian). The source says: Peptides corresponding to the amino acid residues 133–154, 310–330, 401–428, 591–612, 696–712 and 696–729 of human TRPV5 and 401–428 and 690–716 of human TRPV6 (cf. Table 1) were purchased from Peptides & elephants GmbH (Potsdam, Germany) and GenicBio Limited (Shanghai, China). All peptides were purified by HPLC (>95% purity) and analyzed by mass-spectrometry. Prior to all experiments, to remove residual TFA, the peptides were dialyzed against an appropriate buffer (dialysis tubing Spectra/Por® 7 with 1 K MWCO; Spectrum Labs, USA).
Expression was induced by a temperature shift from 30 to 42°C and 3–4 h after induction cells were harvested and lysed. Calmodulin was purified by weak anion exchange (DEAE, GE Lifesciences) and affinity chromatography (Phenylsepharose, GE Lifesciences). Purified protein was dialyzed against 1/100 of KCl 50 mM, CaCl2 10 mM, Tris 20 mM pH 7.0, freeze-dried and stored at −20°C. Unless specified differently, all chemicals were obtained from Sigma-Aldrich, USA). Uniformly ^13C and/or ^15N-labelled samples were produced by growing the cells in M9 minimal medium containing 4 g/L ^13C6-glucose and/or 1 g/L ^15N-ammonium chloride (Buchem BV, Apeldoorn, The Netherlands) as the sole source of carbon and/or nitrogen, respectively.
ITC samples were prepared by dissolving CaM and peptides in 50 mM KCl, 10 mM CaCl2, 20 mM Tris pH 7.0 buffer. The concentration of CaM in the cell was 15–20 μM, the concentration of peptides in the syringe exceeded the CaM concentration by 15–20 times. Protein concentrations were determined using a Nanodrop spectrophotometer ND-1000 (Isogen Life Science). ITC experiments were carried out using an ITC200 device (MicroCal Inc., Northampton, MA, USA). After thermal equilibration at 298 K, thirty-nine 1 μl serial injections were performed at 500 rpm stirring speed with an injection spacing of 4 min. To correct the experimental binding isotherm for background heat effects, we also titrated peptide into buffer. All measurements were performed at least three times to determine the optimal experimental conditions with respect to signal-to-noise ratio. In all cases, experiments were consistent and reproducible. ITC data analysis was performed using the Origin 7.0 software supplied by the manufacturer of the ITC. All data were analyzed with “one binding site model” and the “sequential binding site model” implemented in this software package.

Data set [6] concerns the target Calmodulin (Homo sapiens) (UniProt P0DP23). The data set can be described thus: fluorescence anisotropy. The conditions noted are these: cited from earlier work. On the technique in general: In fluorescence polarisation assays a small probe gives low polarisation when free and higher when bound to something large.
Where [7] appears, read: 15N-1H-HSQC titration, CaM buffer pH 7.0.
Where [8] appears, read: sequential binding sites model, N fixed to 2, pH 7.0, 298 K.

As usually defined, the pKd is the Kd on a negative log10 scale, so that one unit is a factor of ten.

pKd: −log10 of the molar value. “Also recorded” adds a separate entry of the source.

On to “ELWRAQVVATTVMLERKLPRCL [V5p2, C-terminal peptide 2, residues 591–612 of human TRPV5]”, for which the “oligomeric state of CaM in complex” value at CaM (calmodulin) [1] (from T1rho) was “(predominantly) monomeric state of CaM”. In addition, the “15N-T1rho of CaM” value on CaM (calmodulin) [1] (upfield-shifted amide resonances, H2O with 10 mM 2-mercaptoethanol) is ~ 80 ms. Further, the emission maximum at CaM (calmodulin) [2] (CaM:peptide 0.75:1 molar ratio) stood at 337 nm. This substance also came in with an emission maximum on CaM (calmodulin) [2] (further addition of CaM (beyond 0.75:1)) of 312 nm. Besides, at CaM (calmodulin) [2], the “emission maximum without CaM (start of shift)” value worked out at 350 nm and the “shift of emission maximum upon CaM addition” value is listed as “blue-shift in emission maximum”. For the same substance, at CaM (calmodulin) [3], the “CaM NMR line broadening” value is recorded as “many peaks are significantly broadened, some even beyond detection; also recorded: dramatic line broadening in the CaM NMR spectra”. Moreover, in data set [4], the “solubility” value was “only soluble in H2O; also recorded: limited solubility; also recorded: soluble in water” and the “aggregation / precipitation” value is “in any buffer other than water precipitate was formed; also recorded: tends to aggregate in aqueous buffer solutions”.

Consider “ELWRAQVVATTVMLERKLPRSL [V5p2n, V5p2 peptide featuring a C611S mutation]”, for which, on CaM (calmodulin) [3], the “NMR exchange regime of CaM-peptide complex” value (from here on “NMR exchange regime”) is reported as “an intermediate exchange regime is retained” and the “CaM NMR line broadening” value is “a significant loss of signal is observed”. In addition, the “aggregation / precipitation” value in data set [4] is “Neither of these two conditions appears to alter the observed behavior”.

On to “GLEI PDIFRVGASRYFGKTILGGPFHVI [V5p3, TM23-loop peptide, residues 401–428 of TRPV5, L401G]”, for which the “CaM domains involved in binding (overall)” value on CaM (calmodulin) [3] was “Residues of both CaM domains were involved in the binding process”. Besides, the “solubility” value in data set [4] is on record as “only soluble at pH 5.0”.

Regarding “GQTPVKELVSFKWNKYGRPYFS [V5p4, N-terminal peptide 4, residues 310–330 of human TRPV5, C330S]”, at CaM (calmodulin) [2], the “shift of emission maximum upon CaM addition” value is given as “blue shift upon addition of calmodulin”. For the same substance, at CaM (calmodulin) [3] (setting [7]), the “binding process inferred from curved trajectory of resonances” value is on record as “multiple processes take place during V5p4 binding to CaM” and the “CaM binding affinity (words, from NMR)” value was “relatively weak affinity; also recorded: weak but specific binding to CaM”. In addition, the “NMR exchange regime” value on CaM (calmodulin) [3] was “fast exchange on the NMR timescale”.

Take “GSSANWERLRQGTLRRDLRGIINRGLE [V6p1, TRPV6 C-terminal peptide 1, residues 690–716 of human TRPV6, R690G]”: the “emission maximum upon addition of CaM” value at CaM (calmodulin) [2] (V6p1, W695, CaM titration up to peptide:CaM 1:2, CaM buffer pH 7.0) amounted to 324 nm. On CaM (calmodulin) [2], the “emission maximum without CaM (start of shift)” value was determined as 358 nm and the “shift of emission maximum upon CaM addition” value was “blue-shift in emission maximum”. Besides, at CaM (calmodulin) [3], the “CaM domains involved in binding (overall)” value is “residues from both domains of CaM are involved in the first and the second binding events; also recorded: involves both domains of CaM to a similar extent”. On CaM (calmodulin) [5] (K1 versus K2, sequential binding sites model), the “comparison of the affinities of the two binding events” value is reported as “indistinguishable macroscopic binding constants; also recorded: nearly identical affinities”. Further, the K1 on CaM (calmodulin) [5] (association constant, one binding site model, N allowed to vary, 50 mM KCl, 10 mM CaCl2, 20 mM Tris pH 7.0, 298 K) is on record as 1.3 (±0.3) × 10^7 M^−1. At CaM (calmodulin) [5] (association constant, sequential binding sites model, N fixed to 2, 50 mM KCl, 10 mM CaCl2, 20 mM Tris pH 7.0, 298 K, CaM 15–20 μM in cell), the “K2 (macroscopic binding constant, second event)” value is given as 5.2 (±1.5) × 10^6 M^−1. Moreover, the “K1 (macroscopic binding constant, first event)” value on CaM (calmodulin) [5] (association constant, sequential binding sites model, N fixed to 2, 50 mM KCl, 10 mM CaCl2, 20 mM Tris pH 7.0, 298 K, CaM 15–20 μM in cell, measured at least three times) is given as 2.2 (±1.7) × 10^6 M^−1. Moreover, the ΔS1 on CaM (calmodulin) [5] (one binding site model, N allowed to vary, pH 7.0, 298 K) is on record as −27.7 cal mol^−1 deg^−1. At CaM (calmodulin) [5] (setting [8]), this substance displayed a ΔS1 of −29.6 cal mol^−1 deg^−1 and a ΔS2 of −33.0 cal mol^−1 deg^−1.

As to “GVEVPDIFRMGVTRFFGQTILGGPFHVL [V6p3, TM23-loop peptide, residues 401–428 of TRPV6, L401G]”, in data set [4], the “solubility” value is “only soluble at pH 5.0”.

Turning to TRPV5 587-616 (from UniProt Q9NQA5), the pKd in data set [6] was 6.51.

Turning to “VRALLTRRASVSARATGTAFRR [V5p5, N-terminal peptide 5, residues 133–154 of human TRPV5]”, the “CaM binding affinity (words, from NMR)” value at CaM (calmodulin) [3] (setting [7]) is “relatively weak affinity; also recorded: weak but specific binding to CaM”. Further, on CaM (calmodulin) [3], the “NMR exchange regime” value is “fast exchange on the NMR timescale”.
